Measured values published in the NIST ThermoML archive (doi:10.1021/je800998u).
Numbers after ± are expanded uncertainties.

Assay: molar heat capacity at constant pressure
Settings: 101.33 kPa, Small (less than 1 g) adiabatic calorimetry

CC(C)COCC(C)C [diisobutyl ether]
Settings	molar heat capacity at constant pressure [J/K/mol]
140.67 K, Crystal 2	147.66 ± 0.79
141.68 K, Crystal 2	148.47 ± 0.79
142.69 K, Crystal 2	150.03 ± 0.8
143.69 K, Crystal 2	151.09 ± 0.8
144.7 K, Crystal 2	152.64 ± 0.81
145.71 K, Crystal 2	153.6 ± 0.81
146.72 K, Crystal 2	154.66 ± 0.82
147.73 K, Crystal 2	156 ± 0.82
148.74 K, Crystal 2	157.59 ± 0.83
149.74 K, Crystal 2	159.31 ± 0.84
150 K, Crystal 2	158.9 ± 0.8
150.75 K, Crystal 2	160.48 ± 0.84
151.76 K, Crystal 2	162.28 ± 0.85
152.76 K, Crystal 2	163.63 ± 0.85
153.77 K, Crystal 2	165.04 ± 0.86
154.77 K, Crystal 2	166.47 ± 0.87
155.77 K, Crystal 2	168.44 ± 0.87
156.77 K, Crystal 2	170.7 ± 0.88
157.77 K, Crystal 2	172.77 ± 0.89
158.77 K, Crystal 2	174.55 ± 0.9
159.76 K, Crystal 2	176.89 ± 0.91
160 K, Crystal 2	171.1 ± 0.9
160.22 K, Crystal 2	177.95 ± 0.91
161.05 K, Crystal 2	179.83 ± 0.92
161.87 K, Crystal 2	182.1 ± 0.93
162.69 K, Crystal 2	184.81 ± 0.94
163.5 K, Crystal 2	188 ± 0.95
164.29 K, Crystal 2	190.62 ± 0.97
165.08 K, Crystal 2	194.31 ± 0.98
165.86 K, Crystal 2	198.38 ± 1
166.64 K, Crystal 2	203.33 ± 1
167.41 K, Crystal 2	209.11 ± 1.1
168.16 K, Crystal 2	214.73 ± 1.1
168.9 K, Crystal 2	223.05 ± 1.1
169.63 K, Crystal 2	234.85 ± 1.4
170.31 K, Crystal 2	282.57 ± 1.9
170.71 K, Crystal 1	172.2 ± 0.9
170.71 K, Crystal 2	184.2 ± 0.9
171.96 K, Crystal 1	180.54 ± 0.92
172.76 K, Crystal 1	180.42 ± 0.92
173.54 K, Crystal 1	180.19 ± 0.92
174.34 K, Crystal 1	181.2 ± 0.93
175.14 K, Crystal 1	182.92 ± 0.93
175.93 K, Crystal 1	183.75 ± 0.94
176.72 K, Crystal 1	185.64 ± 0.94
177.5 K, Crystal 1	187.45 ± 0.95
178.28 K, Crystal 1	189.66 ± 0.96
179.05 K, Crystal 1	192.53 ± 0.97
179.81 K, Crystal 1	195.2 ± 0.98
180 K, Crystal 1	193.8 ± 1
190.4 K, Crystal 1	218 ± 1.1
190.4 K, Liquid	241.1 ± 1.2
200 K, Liquid	243.7 ± 1.2
205.51 K, Liquid	245.31 ± 1.2
207.14 K, Liquid	245.51 ± 1.2
208.62 K, Liquid	246.05 ± 1.2
210 K, Liquid	246.3 ± 1.2
210.09 K, Liquid	246.27 ± 1.2
211.57 K, Liquid	246.56 ± 1.2
213.04 K, Liquid	247.06 ± 1.2
214.48 K, Liquid	247.32 ± 1.2
215.95 K, Liquid	247.78 ± 1.2
217.42 K, Liquid	248.16 ± 1.2
218.89 K, Liquid	248.58 ± 1.2
220 K, Liquid	248.9 ± 1.2
220.35 K, Liquid	248.91 ± 1.2
221.82 K, Liquid	249.16 ± 1.2
223.28 K, Liquid	249.85 ± 1.2
224.74 K, Liquid	250.34 ± 1.2
226.2 K, Liquid	250.85 ± 1.2
227.65 K, Liquid	251.29 ± 1.2
229.11 K, Liquid	251.85 ± 1.2
230 K, Liquid	251.9 ± 1.2
230.56 K, Liquid	252.2 ± 1.2
232.02 K, Liquid	252.69 ± 1.2
233.46 K, Liquid	252.85 ± 1.2
234.91 K, Liquid	253.44 ± 1.2
236.36 K, Liquid	253.83 ± 1.2
237.75 K, Liquid	254.25 ± 1.2
239.2 K, Liquid	254.81 ± 1.2
240 K, Liquid	255 ± 1.2
240.64 K, Liquid	255.42 ± 1.2
242.08 K, Liquid	255.9 ± 1.2
243.52 K, Liquid	256 ± 1.2
244.96 K, Liquid	256.76 ± 1.2
246.39 K, Liquid	256.99 ± 1.2
247.83 K, Liquid	257.45 ± 1.2
249.26 K, Liquid	257.99 ± 1.2
250 K, Liquid	258.3 ± 1.2
250.69 K, Liquid	258.39 ± 1.2
252.11 K, Liquid	258.84 ± 1.2
253.54 K, Liquid	259.49 ± 1.2
254.96 K, Liquid	259.95 ± 1.2
256.39 K, Liquid	260.62 ± 1.2
257.8 K, Liquid	260.96 ± 1.2
259.22 K, Liquid	261.75 ± 1.2
260 K, Liquid	261.8 ± 1.2
260.56 K, Liquid	261.97 ± 1.2
261.97 K, Liquid	262.87 ± 1.2
263.39 K, Liquid	262.95 ± 1.2
264.79 K, Liquid	263.61 ± 1.2
266.2 K, Liquid	263.86 ± 1.3
267.6 K, Liquid	264.22 ± 1.3
269 K, Liquid	264.8 ± 1.3
270 K, Liquid	265.3 ± 1.3
270.4 K, Liquid	265.39 ± 1.3
271.8 K, Liquid	265.93 ± 1.3
273.19 K, Liquid	266.68 ± 1.3
274.58 K, Liquid	266.81 ± 1.3
275.97 K, Liquid	267.53 ± 1.3
277.36 K, Liquid	267.85 ± 1.3
278.74 K, Liquid	268.3 ± 1.3
280 K, Liquid	269 ± 1.3
281.5 K, Liquid	269.6 ± 1.3
282.78 K, Liquid	270.45 ± 1.3
284.16 K, Liquid	270.8 ± 1.3
285.53 K, Liquid	271.08 ± 1.3
286.9 K, Liquid	271.46 ± 1.3
288.26 K, Liquid	271.98 ± 1.3
289.62 K, Liquid	272.75 ± 1.3
290 K, Liquid	272.8 ± 1.3
290.98 K, Liquid	273.36 ± 1.3
292.34 K, Liquid	273.73 ± 1.3
293.69 K, Liquid	274.04 ± 1.3
295.04 K, Liquid	275.21 ± 1.3
296.39 K, Liquid	275.08 ± 1.3
297.73 K, Liquid	275.64 ± 1.3
298.15 K, Liquid	276.08 ± 1.3
299.07 K, Liquid	276.44 ± 1.3
300 K, Liquid	276.8 ± 1.3
300.41 K, Liquid	277.1 ± 1.3
301.75 K, Liquid	277.51 ± 1.3
303.04 K, Liquid	278.07 ± 1.3
304.14 K, Liquid	278.56 ± 1.3
305.42 K, Liquid	279.01 ± 1.3
306.7 K, Liquid	279.35 ± 1.3
307.97 K, Liquid	279.87 ± 1.3
309.24 K, Liquid	280.81 ± 1.3
310 K, Liquid	280.8 ± 1.3
310.5 K, Liquid	280.87 ± 1.3
311.76 K, Liquid	281.46 ± 1.3
313.02 K, Liquid	282.03 ± 1.3
314.27 K, Liquid	282.55 ± 1.3
315.52 K, Liquid	282.93 ± 1.3
316.76 K, Liquid	283.81 ± 1.3
318 K, Liquid	284.25 ± 1.3
319.23 K, Liquid	284.87 ± 1.3
320 K, Liquid	285 ± 1.3
320.46 K, Liquid	285.2 ± 1.3
321.69 K, Liquid	285.88 ± 1.3
322.91 K, Liquid	286.38 ± 1.4
323.9 K, Liquid	286.65 ± 1.4
325.11 K, Liquid	287.21 ± 1.4
326.32 K, Liquid	287.74 ± 1.4
327.53 K, Liquid	288.35 ± 1.4
328.73 K, Liquid	288.89 ± 1.4
329.92 K, Liquid	289.24 ± 1.4
330 K, Liquid	289.5 ± 1.4
331.11 K, Liquid	289.99 ± 1.4
332.3 K, Liquid	290.62 ± 1.4
333.48 K, Liquid	291.36 ± 1.4
334.66 K, Liquid	291.41 ± 1.4
335.83 K, Liquid	292.26 ± 1.4
337 K, Liquid	292.85 ± 1.4
338.16 K, Liquid	293.71 ± 1.4
339.32 K, Liquid	294.5 ± 1.4
340 K, Liquid	294.7 ± 1.4
340.48 K, Liquid	295.14 ± 1.4
343.62 K, Liquid	297.13 ± 1.4
344.76 K, Liquid	297.38 ± 1.4
345.9 K, Liquid	297.62 ± 1.4
347.04 K, Liquid	298.5 ± 1.4
348.17 K, Liquid	299 ± 1.4
350 K, Liquid	300 ± 1.4
350.41 K, Liquid	300.11 ± 1.4
351.51 K, Liquid	300.37 ± 1.4
352.61 K, Liquid	301.47 ± 1.4
353.7 K, Liquid	302.2 ± 1.4
354.79 K, Liquid	302.27 ± 1.4
355.88 K, Liquid	302.92 ± 1.4
356.96 K, Liquid	303.07 ± 1.4
358.04 K, Liquid	303.49 ± 1.4
359.11 K, Liquid	304.07 ± 1.4
359.83 K, Liquid	304.07 ± 1.4
360 K, Liquid	304.4 ± 1.4
360.9 K, Liquid	304.89 ± 1.4
361.96 K, Liquid	305.2 ± 1.4
363.02 K, Liquid	305.35 ± 1.4
364.07 K, Liquid	305.71 ± 1.4
365.12 K, Liquid	305.76 ± 1.4
366.14 K, Liquid	306.97 ± 1.4
367.16 K, Liquid	307.23 ± 1.4
368.17 K, Liquid	308 ± 1.4
369.17 K, Liquid	308.72 ± 1.4
370 K, Liquid	308.9 ± 1.4
370.15 K, Liquid	309.38 ± 1.4
371.14 K, Liquid	309.88 ± 1.4
372.11 K, Liquid	310.26 ± 1.4
